Measurements taken from patent US7432260B2, “Pyrimidine compounds” (Cyclacel Limted, priority 2002, dated 2008).

Legend:
CDK2/cyclin A = CDK2/cyclin A (Homo sapiens, UniProt P24941); assay: Kinase assay CDK2/cyclin A; format: biochemical; settings: Table 2; read-out: Kinase Inhibition IC50 CDK2 cyclin A
Procedure: (§1) Kinase assays. […] This was achieved by measurement of incorporation of radioactive phosphate from ATP into appropriate polypeptide substrates. Recombinant protein kinases and kinase complexes were produced or obtained commercially. Assays were performed using 96-well plates and appropriate assay buffers (typically 25 mM β-glycerophosphate, 20 mM MOPS, 5 mM EGTA, 1 mM DTT, 1 mM […], pH 7.4), into which were added 2-4 μg of active enzyme with appropriate substrates. The reactions were initiated by addition of Mg/ATP mix (15 mM MgCl2+100 μM ATP with 30-50 kBq per well of [γ-^32P]-ATP) and mixtures incubated as required at 30° C. Reactions were stopped on ice, followed by filtration through p81 filterplates or GF/C filterplates (Whatman Polyfiltronics, Kent, UK). After washing 3 times with 75 mM aq orthophosphoric acid, plates were dried, scintillant added and incorporated radioactivity measured in a scintillation counter (TopCount, Packard Instruments, Pangbourne, Berks, UK). Compounds for kinase assay were made-up as 10 mM stocks in DMSO and diluted into 10% DMSO inrassay buffer.

CDK4/cyclin D1 = CDK4/cyclin D1 (Homo sapiens, UniProt P11802); assay: Kinase assay CDK4/cyclin D1; format: biochemical; settings: Table 2; read-out: Kinase Inhibition IC50 CDK4 cyclin D1
Procedure: as §1

CDK9/cyclin T1 = CDK9/cyclin T1 (Homo sapiens, UniProt P50750); assay: CDK9 assay; format: biochemical; settings: Table 2; read-out: Kinase Inhibition IC50 CDK9 cyclin T1
Procedure: as §1
(§2) CDK 7 and 9 assays. CTD peptide substrate (biotinyl-Ahx-(Tyr-Ser-Pro-Thr-Ser-Pro-Ser)4-NH2; 1-2 mg/mL) and recombinant human CDK7/cyclin H, CDK9/cyclin T1, or CDK9/cyclin K (0.5-2 μg) were incubated for 45 min at 30° C. in the presence of varying amounts of test compound in 20 mM MOPS pH 7.2, 25 mM β-glycerophosphate, 5 mM EGTA, 1 mM DTT, 1 mM sodium vanadate, 15 mM MgCl2, and 100 μM ATP (containing a trace amount of ^32PγATP) in a total volume of 25 μL in a 96-well microtiter plate. The reaction was stopped by placing the plate on ice for 2 min. Avidin (50 μg) was added to each well, and the plate was incubated at room temp for 30 min. The samples were transferred to a 96-well P81 filter plate, and washed (4×200 μL per well) with 75 mM phosphoric acid. Microscint 40 scintillation liquid (50 μL) was added to each well, and the amount of ^32P incorporation for each sample was measured using a Packard Topcount microplate scintillation counter.

HT29 = assay: 72-h MTT cytotoxicity assay HT29; format: cell-based; settings: Homo sapiens, HT-29, 72 h, Table 4
Procedure: (§3) MTT cytotoxicity assay. […] Standard 72-h MTT (thiazolyl blue; 3-[4,5-dimethylthiazol-2-yl]-2,5-diphenyltetrazolium bromide) assays were performed (Haselsberger, K.; Peterson, D. C.; Thomas, D. G.; Darling, J. L. Anti Cancer Drugs 1996, 7, 331-8; Loveland, B. E.; Johns, T. G.; Mackay, I. R.; Vaillant, F.; Wang, Z. X.; Hertzog, P. J. Biochemistry International 1992, 27, 501-10). In short: cells were seeded into 96-well plates according to doubling time and incubated overnight at 37° C. Test compounds were made up in DMSO and a 1/3 dilution series prepared in 100 μL cell media, added to cells (in triplicates) and incubated for 72 ho at 37° C. MTT was made up as a stock of 5 mg/mL in cell media and filter-sterilised. Media was removed from cells followed by a wash with 200 μL PBS.
(§4) MTT solution was then added at 20 μL per well and incubated in the dark at 37° C. for 4 h. MTT solution was removed and cells again washed with 200 μL PBS. MTT dye was solubilised with 200 μL per well of DMSO with agitation.

A549 = assay: 72-h MTT cytotoxicity assay A549; format: cell-based; settings: Homo sapiens, A549, 72 h, Table 4
Procedure: as §3, §4

CDK2/cyclin E = CDK2/cyclin E (Homo sapiens, UniProt P24941); assay: Kinase assay CDK2/cyclin E; format: biochemical; settings: Table 2; read-out: Kinase Inhibition IC50 CDK2 cyclin E
Procedure: as §1

CDK1/cyclin B = CDK1/cyclin B (Homo sapiens, UniProt P06493); assay: Kinase assay CDK1/cyclin B; format: biochemical; settings: Table 2; read-out: Kinase Inhibition IC50 CDK1 cyclin B
Procedure: as §1

Saos-2 = assay: 72-h MTT cytotoxicity assay Saos-2; format: cell-based; settings: Homo sapiens, SAOS-2, 72 h, Table 4
Procedure: as §3, §4

CDK7/cyclin H = CDK7/cyclin H (Homo sapiens, UniProt P50613); assay: CDK7 assay; format: biochemical; settings: Table 2; read-out: Kinase Inhibition IC50 CDK7 cyclin H
Procedure: as §1, §2

Chain of CDK7/cyclin H (P50613 whole entry): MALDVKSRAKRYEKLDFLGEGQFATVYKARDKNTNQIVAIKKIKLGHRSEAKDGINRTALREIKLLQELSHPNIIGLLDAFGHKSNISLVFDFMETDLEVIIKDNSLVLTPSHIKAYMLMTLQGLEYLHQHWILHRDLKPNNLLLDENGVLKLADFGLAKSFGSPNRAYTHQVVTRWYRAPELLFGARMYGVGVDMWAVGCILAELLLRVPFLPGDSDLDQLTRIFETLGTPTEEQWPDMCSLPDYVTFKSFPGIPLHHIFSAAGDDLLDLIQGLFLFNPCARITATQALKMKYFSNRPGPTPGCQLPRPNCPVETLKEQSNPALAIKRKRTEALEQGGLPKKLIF
Chain of CDK4/cyclin D1 (P11802 whole entry): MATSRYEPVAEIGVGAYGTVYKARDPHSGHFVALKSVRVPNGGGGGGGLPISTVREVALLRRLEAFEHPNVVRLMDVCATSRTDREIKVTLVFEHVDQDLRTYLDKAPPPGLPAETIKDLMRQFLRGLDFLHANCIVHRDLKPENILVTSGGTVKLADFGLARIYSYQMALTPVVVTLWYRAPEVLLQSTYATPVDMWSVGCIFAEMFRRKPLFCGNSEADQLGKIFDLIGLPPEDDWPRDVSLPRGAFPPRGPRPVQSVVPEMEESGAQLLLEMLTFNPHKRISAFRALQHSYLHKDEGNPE
Chain of CDK4/cyclin D1 (P24385 whole entry partner): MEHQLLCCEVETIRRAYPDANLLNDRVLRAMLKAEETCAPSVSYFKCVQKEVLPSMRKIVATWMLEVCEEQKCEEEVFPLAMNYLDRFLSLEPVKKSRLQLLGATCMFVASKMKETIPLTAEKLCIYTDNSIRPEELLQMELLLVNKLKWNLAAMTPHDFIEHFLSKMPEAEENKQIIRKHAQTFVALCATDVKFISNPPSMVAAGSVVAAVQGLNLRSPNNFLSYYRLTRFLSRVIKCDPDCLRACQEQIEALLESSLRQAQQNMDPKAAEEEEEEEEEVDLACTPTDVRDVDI
Chain of CDK1/cyclin B (P06493 whole entry): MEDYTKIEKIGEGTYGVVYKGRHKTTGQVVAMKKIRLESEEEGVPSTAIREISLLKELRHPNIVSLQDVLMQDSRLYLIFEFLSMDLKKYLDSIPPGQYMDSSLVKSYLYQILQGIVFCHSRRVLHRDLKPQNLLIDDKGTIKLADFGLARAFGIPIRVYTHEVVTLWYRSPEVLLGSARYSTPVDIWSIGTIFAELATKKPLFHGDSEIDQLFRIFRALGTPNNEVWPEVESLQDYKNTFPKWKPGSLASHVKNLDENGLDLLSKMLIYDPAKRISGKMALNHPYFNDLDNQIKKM
Chain of CDK1/cyclin B (P14635 whole entry partner): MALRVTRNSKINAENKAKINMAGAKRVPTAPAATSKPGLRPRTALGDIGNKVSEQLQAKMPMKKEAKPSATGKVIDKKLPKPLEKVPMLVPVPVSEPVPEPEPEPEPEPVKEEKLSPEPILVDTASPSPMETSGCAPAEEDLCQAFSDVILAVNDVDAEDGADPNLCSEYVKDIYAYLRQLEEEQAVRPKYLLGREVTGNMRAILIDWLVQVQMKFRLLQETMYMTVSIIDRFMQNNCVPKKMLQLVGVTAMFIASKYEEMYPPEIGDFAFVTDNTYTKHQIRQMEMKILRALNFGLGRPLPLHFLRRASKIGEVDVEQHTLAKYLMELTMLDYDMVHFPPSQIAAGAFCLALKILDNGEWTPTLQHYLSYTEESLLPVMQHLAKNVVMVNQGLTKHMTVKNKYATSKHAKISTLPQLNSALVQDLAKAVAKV
Chain of CDK9/cyclin T1 (P50750 whole entry): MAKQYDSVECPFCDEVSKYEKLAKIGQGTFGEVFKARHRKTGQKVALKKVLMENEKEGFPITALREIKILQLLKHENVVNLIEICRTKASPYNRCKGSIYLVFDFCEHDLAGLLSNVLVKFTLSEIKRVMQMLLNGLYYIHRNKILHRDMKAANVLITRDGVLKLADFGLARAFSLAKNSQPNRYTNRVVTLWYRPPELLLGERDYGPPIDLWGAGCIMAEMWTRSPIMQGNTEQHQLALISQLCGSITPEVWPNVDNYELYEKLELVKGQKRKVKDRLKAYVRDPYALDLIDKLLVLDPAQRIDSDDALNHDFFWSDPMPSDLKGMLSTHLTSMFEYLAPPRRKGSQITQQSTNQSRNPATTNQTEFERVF
Chain of CDK9/cyclin T1 (O60563 whole entry partner): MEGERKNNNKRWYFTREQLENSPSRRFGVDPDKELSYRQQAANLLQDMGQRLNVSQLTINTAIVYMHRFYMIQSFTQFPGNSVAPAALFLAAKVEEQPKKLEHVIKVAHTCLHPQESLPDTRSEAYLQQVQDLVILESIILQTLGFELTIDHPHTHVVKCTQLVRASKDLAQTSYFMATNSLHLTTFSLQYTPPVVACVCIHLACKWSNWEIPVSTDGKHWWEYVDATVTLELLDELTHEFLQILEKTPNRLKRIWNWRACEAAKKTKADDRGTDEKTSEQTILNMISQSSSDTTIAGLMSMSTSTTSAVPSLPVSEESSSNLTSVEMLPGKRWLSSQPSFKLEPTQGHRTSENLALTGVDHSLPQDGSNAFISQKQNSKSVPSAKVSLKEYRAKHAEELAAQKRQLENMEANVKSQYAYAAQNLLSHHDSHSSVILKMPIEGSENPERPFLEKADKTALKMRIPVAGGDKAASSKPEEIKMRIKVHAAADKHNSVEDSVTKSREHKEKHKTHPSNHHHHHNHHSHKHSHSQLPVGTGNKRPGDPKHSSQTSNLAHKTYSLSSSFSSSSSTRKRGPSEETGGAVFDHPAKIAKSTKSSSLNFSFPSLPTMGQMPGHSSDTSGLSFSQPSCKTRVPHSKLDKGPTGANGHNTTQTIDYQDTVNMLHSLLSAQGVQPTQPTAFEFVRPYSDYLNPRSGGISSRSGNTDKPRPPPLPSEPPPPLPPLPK

IC50 (CDK2/cyclin A)	IC50 (CDK4/cyclin D1)	IC50 (CDK9/cyclin T1)	IC50 (CDK2/cyclin E)	IC50 (CDK1/cyclin B)	IC50 (CDK7/cyclin H)	Structure (SMILES)	IC50 (HT29)	IC50 (A549)	IC50 (Saos-2)
580 nM	1800 nM	1100 nM	2700 nM	1900 nM	–	COc1ccc(Nc2nccc(-c3sc(NC(=O)CCN4CCOCC4)nc3C)n2)cc1 [Compound 38, N-{5-[2-(4-Methoxy-phenylamino)-pyrimidin-4-yl]-4-methyl-thiazol-2-yl}-3-morpholin-4-yl-propionamide]	1700 nM	2700 nM	5300 nM
1300 nM	620 nM	–	1800 nM	4200 nM	2.2 µM	Cc1nc(C)c(-c2ccnc(Nc3ccc(N4CCN(CCOCCO)CC4)cc3)n2)s1 [Compound 7, [4-(2,4-Dimethyl-thiazol-5-yl)-pyrimidin-2-yl]-[4-(4′-2″-ethoxylethanolpiperazino)-phenyl]-amine]	1600 nM	3900 nM	1600 nM
–	440 nM	5.8 nM	1100 nM	–	–	Cc1nc(NC(=O)CCl)sc1-c1ccnc(Nc2cccc([N+](=O)[O-])c2)n1 [Compound 24, 2-Chloro-N-{4-methyl-5-[2-(3-nitro-phenylamino)-pyrimidin-4-yl]-thiazol-2-yl}-acetamide]	140 nM	140 nM	170 nM
1300 nM	180 nM	–	440 nM	2500 nM	2 µM	Cc1nc(C)c(-c2ccnc(Nc3ccc(NC(=O)Cn4cncn4)cc3)n2)s1 [Compound 52, N-{4-[4-(2,4-Dimethyl-thiazol-5-yl)-pyrimidin-2-ylamino]-phenyl}-2-[1,2,4]triazol-1-yl-acetamide]	1600 nM	1600 nM	1100 nM
–	1100 nM	530 nM	180 nM	–	–	Cc1nc(NC(=O)CCCN)sc1-c1ccnc(Nc2cccc([N+](=O)[O-])c2)n1 [Compound 18, 4-Amino-N-{4-methyl-5-[2-(3-nitro-phenylamino)-pyrimidin-4-yl]-thiazol-2-yl}-butyramide]	2400 nM	2500 nM	1100 nM
2900 nM	400 nM	–	1700 nM	11000 nM	9.6 µM	Cc1nc(C)c(-c2ccnc(Nc3ccc(NC(=O)CN4CCOCC4)cc3)n2)s1 [Compound 51, N-{4-[4-(2,4-Dimethyl-thiazol-5-yl)-pyrimidin-2-ylamino]-phenyl}-2-morpholin-4-yl-acetamide]	1400 nM	1900 nM	1100 nM
–	2200 nM	340 nM	68 nM	–	–	Cc1nc(NC(=O)[C@@H](N)CO)sc1-c1ccnc(Nc2cccc([N+](=O)[O-])c2)n1 [Compound 14, (2S)-2-Amino-3-hydroxy-N-{4-methyl-5-[2-(3-nitro-phenylamino)-pyrimidin-4-yl]-thiazol-2-yl}-propionamide]	730 nM	990 nM	1500 nM
12000 nM	29000 nM	–	2600 nM	36000 nM	–	Cc1nc(NC(=O)CN2CCN(C(=O)OC(C)(C)C)CC2)sc1-c1ccnc(Nc2cccc([N+](=O)[O-])c2)n1 [Compound 28, 4-({4-Methyl-5-[2-(3-nitro-phenylamino)-pyrimidin-4-yl]-thiazol-2-ylcarbamoyl}-methyl)-piperazine-1-carboxylic acid tert-butyl ester]	6740 nM	9900 nM	15000 nM
–	11000 nM	–	–	51000 nM	–	Cc1nc(C)c(-c2ccnc(Nc3ccc(N4CCN(S(C)(=O)=O)CC4)cc3)n2)s1 [Compound 10, [4-(2,4-Dimethyl-thiazol-5-yl)-pyrimidin-2-yl]-[4-(4-methanesulfonyl-piperazin-1-yl)-phenyl]-amine]	6400 nM	11000 nM	–
1 nM	3800 nM	–	28 nM	48 nM	11 µM	Cc1nc(C)c(-c2ccnc(Nc3ccc(S(C)(=O)=O)cc3)n2)s1 [Compound 85, [4-(2,4-Dimethyl-thiazol-5-yl)-pyrimidin-2-yl]-(4-methanesulfonyl-phenyl)-amine]	–	–	–
520 nM	770 nM	37 nM	76 nM	1900 nM	–	Cc1nc(NC(=O)CCBr)sc1-c1ccnc(Nc2ccc(F)cc2)n1 [Compound 20, 3-Bromo-N-{5-[2-(4-fluoro-phenylamino)-pyrimidin-4-yl]-4-methyl-thiazol-2-yl}-propionamide]	6300 nM	5800 nM	–
100 nM	630 nM	–	110 nM	120 nM	–	CNc1nc(C)c(-c2ccnc(Nc3cccc(CO)c3)n2)s1 [Compound 91, {3-[4-(4-Methyl-2-methylamino-thiazol-5-yl)-pyrimidin-2-ylamino]-phenyl}-methanol]	–	–	–
–	–	–	210 nM	2000 nM	–	Cc1nc(NC(=O)[C@@H](N)[C@H](C)O)sc1-c1ccnc(Nc2cccc([N+](=O)[O-])c2)n1 [Compound 17, (2S,3S)-2-Amino-3-hydroxy-N-{4-methyl-5-[2-(3-nitro-phenylamino)-pyrimidin-4-yl]-thiazol-2-yl}-butyramide]	1200 nM	1100 nM	1200 nM
–	5600 nM	–	300 nM	–	–	Cc1nc(NS(C)(=O)=O)sc1-c1ccnc(Nc2ccc(F)cc2)n1 [Compound 31, N-{5-[2-(4-Fluoro-phenylamino)-pyrimidin-4-yl]-4-methyl-thiazol-2-yl}-methanesulfonamide]	4100 nM	2000 nM	810 nM
–	–	–	–	–	–	Cc1nc(NC(=O)CCl)sc1-c1ccnc(Nc2ccc(F)cc2)n1 [Compound 33, 2-Chloro-N-{5-[2-(4-fluoro-phenylamino)-pyrimidin-4-yl]-4-methyl-thiazol-2-yl}-acetamide]	110 nM	330 nM	300 nM
–	7 nM	–	–	980 nM	–	CNc1nc(C)c(-c2ccnc(Nc3ccc(N4CCNCC4)cc3)n2)s1 [Compound 62, [4-(4-Methyl-2-methylamino-thiazol-5-yl)-pyrimidin-2-yl]-(4-piperazin-l-yl-phenyl)-amine]	180 nM	190 nM	260 nM
1700 nM	2600 nM	–	2100 nM	12000 nM	3.5 µM	CC(=O)N(C)c1ccc(Nc2nccc(-c3sc(C)nc3C)n2)cc1 [Compound 48, N-{4-[4-(2,4-Dimethyl-thiazol-5-yl)-pyrimidin-2-ylamino]-phenyl}-N-methyl-acetamide]	2600 nM	3000 nM	3800 nM
